From publication PMC8746858 (Molecules, 2021)
Values after ≈ are worked out from the molar mass of the structure shown. Like-named read-outs stand apart in the source and are kept apart here.

What was measured:
[1] = tested on: fibroblasts (NIH/3T3 cells); assay: cells
Method: (§1) Finally, control experiments with non-treated cells were performed.
The effect of the compounds on the viability of murine 3T3 fibroblasts was estimated using NRU assay. After the incubation time (24 h) cells, media were removed, then to each well we added 100 µL of medium containing neutral red (50 µg/mL). […] The plates were shaken for 10 min at room temperature. Then, the absorption at 540 nm was measured using a microplate reader (Biosan). The results were calculated for each sample concentration as a percentage of medium control. The values are presented as mean ± standard deviation of three independent experiments.

IL-6 = IL-6 ELISA in supernatant of LPS-stimulated HaCaT cells; type: cell-based, human; conditions: 12 h pretreatment then LPS 12 h
Method: HaCaT cells were seeded in a 24-well plate at a density of 5 × 10^4 cells/well and maintained in DMEM high glucose with 10% FBS until an 80% confluent monolayer was reached. […] Control experiments with LPS-treated cells only were conducted. Controls with cells treated with neither compounds nor LPS were also performed. After that, the cell culture supernatant was collected, and the IL-6 cytokine was measured using an ELISA kit.

[2] = Solubility in typical solvents, modified Vogel method; conditions: 25 °C; for Solubility in Water (63.1): ET(30) in parentheses
Description: For this purpose, dimethyl sulfoxide, ethanol, chloroform, ethyl acetate, diethyl ether, toluene, and n-hexane were used as solvents.

[3] = TG, air atmosphere, 10 °C·min^−1
[4] = Solubility in water, HPLC of saturated solutions
Method: Then, the obtained saturated solutions were diluted 100 times and analyzed. […] A mixture of 50% acetonitrile and 50% water was used as the mobile phase. The flow rate was 1 cm^3·min^−1. The column temperature was 30 °C. A Luna® Omega 3 µm Polar C18 100 Å column with dimensions of 150 × 4.6 mm was used. The injection volume for these samples was 50 mm^3. Each measurement was performed in triplicate, and the results were averaged.

[5] = tested on: human keratinocytes (HaCaT cells); assay: MTT viability assay; conditions: for Viability of HaCaT after 48 h Treatment with 0.4 mM IL or SA: calculated as percentage of medium control, in %; for IC50: HaCaT, 24 h
Method: as §1
(§2) We applied an assay based on the reduction of methyl thiazol tetrazolium bromide (MTT) to assess the effect of the compounds on the viability of HaCaT cells. […] After that, the cells were lysed with a solution of DMSO:ethanol (1:1 v/v). The absorbance of the reduced formazan dye product was read at 560 nm in a microplate reader (Biosan). The results were calculated for each sample concentration as a percentage of medium control. The values are presented as mean ± standard deviation of three independent experiments.

MTT viability assay = conditions: human, HaCaT keratinocytes
Method: as §1, §2

[6] = NIH/3T3, 24 h, neutral red uptake
[7] = read-out: IC50 (in mM), NIH/3T3, 24 h, neutral red uptake
[8] = the two tested concentrations (1 and 10 µM)

Compound	IC50 [1, 6]	IC50 [1, 7]	Solubility in Chloroform (39.1) [2]	Solubility in DMSO (45.1) [2]	Solubility in Diethyl ether (34.5) [2]	Solubility in Ethanol (51.9) [2]	Solubility in Ethyl Acetate (38.1) [2]	Solubility in Toluene (33.9) [2]	Solubility in n-Hexane (31.0) [2]	Solubility in Water (63.1) [2]	Tonset, the onset of the thermal degradation [3]	Solubility in Water at 25 °C ([4]; g of compound per dm^3)	Viability of HaCaT after 48 h Treatment with 0.4 mM IL or SA [5]	IC50 ([5]; MTT)	IC50 ([5]; read-out: IC50 (in mM), MTT)	other results
CCOC(=O)[C@@H](N)CC(C)C.O=C(O)c1ccccc1O [[LeuOEt][SA], L-leucine ethyl ester salicylate]	894 ± 12 µg/mL	~3 mM	–	–	–	–	–	–	–	–	–	–	–	–	–	Level of IL-6 in LPS-stimulated HaCaT (IL-6; 1 µM): no effect or negligible inhibition of the IL-6 production
CCCOC(=O)[C@@H](N)Cc1ccccc1.O=C(O)c1ccccc1O [[PheOPr][SA], L-phenylalanine propyl ester salicylate]	662 ± 9 µg/mL	~1.9 mM	+ (soluble >100 mg·cm^−3)	+ (soluble >100 mg·cm^−3)	+ (soluble >100 mg·cm^−3)	+/− (partially soluble 33–100 mg·cm^−3)	+/− (partially soluble 33–100 mg·cm^−3)	− (insoluble < 33 mg·cm^−3)	− (insoluble < 33 mg·cm^−3)	− (insoluble < 33 mg·cm^−3)	185.0 °C	1.143 ± 0.001 g·dm^−3	93 ± 4	650 ± 100 µg/mL	~1.9 mM	Level of IL-6 in LPS-stimulated HaCaT (IL-6; 1 µM): completely protected from inflammation; Level of IL-6 in LPS-stimulated HaCaT (IL-6; 10 μM): no effect or negligible inhibition of the IL-6 production
CC(C)OC(=O)[C@@H](N)C(C)C.O=C(O)c1ccccc1O [[ValOiPr][SA], L-valine isopropyl ester salicylate]	658 ± 7 µg/mL	~2.2 mM	+ (soluble >100 mg·cm^−3)	+ (soluble >100 mg·cm^−3)	+/− (partially soluble 33–100 mg·cm^−3)	+ (soluble >100 mg·cm^−3)	+/− (partially soluble 33–100 mg·cm^−3)	+ (soluble >100 mg·cm^−3)	− (insoluble < 33 mg·cm^−3)	+/− (partially soluble 33–100 mg·cm^−3)	163.1 °C	18.458 ± 0.018 g·dm^−3	66 ± 2	900 ± 50 µg/mL	~3.1 mM	Level of IL-6 in LPS-stimulated HaCaT (IL-6; 10 μM): no effect or negligible inhibition of the IL-6 production
CCCOC(=O)[C@@H](N)C(C)C.O=C(O)c1ccccc1O [[ValOPr][SA], L-valine propyl ester salicylate]	1310 ± 17 µg/mL	–	+ (soluble >100 mg·cm^−3)	+ (soluble >100 mg·cm^−3)	+ (soluble >100 mg·cm^−3)	+ (soluble >100 mg·cm^−3)	+ (soluble >100 mg·cm^−3)	+ (soluble >100 mg·cm^−3)	− (insoluble < 33 mg·cm^−3)	+/− (partially soluble 33–100 mg·cm^−3)	177.9 °C	21.789 ± 0.024 g·dm^−3	74 ± 2	500 ± 50 µg/mL	~1.8 mM	–
CCOC(=O)[C@@H](N)Cc1ccccc1.O=C(O)c1ccccc1O [[PheOEt][SA], L-phenylalanine ethyl ester salicylate]	1062 ± 15 µg/mL	~3.2 mM	+ (soluble >100 mg·cm^−3)	+ (soluble >100 mg·cm^−3)	+ (soluble >100 mg·cm^−3)	+/− (partially soluble 33–100 mg·cm^−3)	+/− (partially soluble 33–100 mg·cm^−3)	− (insoluble < 33 mg·cm^−3)	− (insoluble < 33 mg·cm^−3)	− (insoluble < 33 mg·cm^−3)	181.1 °C	9.732 ± 0.010 g·dm^−3	105 ± 4	2200 ± 150 µg/mL	~6.6 mM	Level of IL-6 in LPS-stimulated HaCaT (IL-6; [8]): comparable to those produced by 1 µM SA
CCOC(=O)[C@@H](N)C(C)C.O=C(O)c1ccccc1O [[ValOEt][SA], L-valine ethyl ester salicylate]	700 ± 8 µg/mL	~2.5 mM	+ (soluble >100 mg·cm^−3)	+ (soluble >100 mg·cm^−3)	+ (soluble >100 mg·cm^−3)	+ (soluble >100 mg·cm^−3)	+ (soluble >100 mg·cm^−3)	+ (soluble >100 mg·cm^−3)	− (insoluble < 33 mg·cm^−3)	+/− (partially soluble 33–100 mg·cm^−3)	157.6 °C	26.070 ± 0.026 g·dm^−3	74 ± 2	600 ± 10 µg/mL	~2.1 mM	Level of IL-6 in LPS-stimulated HaCaT (IL-6; [8]): comparable to those produced by 1 µM SA
CCCCOC(=O)[C@@H](N)C(C)C.O=C(O)c1ccccc1O [[ValOBu][SA], L-valine butyl ester salicylate]	309 ± 9 µg/mL	~1 mM	+ (soluble >100 mg·cm^−3)	+ (soluble >100 mg·cm^−3)	+ (soluble >100 mg·cm^−3)	+/− (partially soluble 33–100 mg·cm^−3)	+ (soluble >100 mg·cm^−3)	+ (soluble >100 mg·cm^−3)	− (insoluble < 33 mg·cm^−3)	+/− (partially soluble 33–100 mg·cm^−3)	171.8 °C	14.490 ± 0.014 g·dm^−3	74 ± 1	600 ± 200 µg/mL	~1.9 mM	–
O=C(O)c1ccccc1O [SA, Salicylic acid, reference compound]	–	–	+/− (partially soluble 33–100 mg·cm^−3)	+ (soluble >100 mg·cm^−3)	+ (soluble >100 mg·cm^−3)	+ (soluble >100 mg·cm^−3)	+ (soluble >100 mg·cm^−3)	+/− (partially soluble 33–100 mg·cm^−3)	− (insoluble < 33 mg·cm^−3)	+/− (partially soluble 33–100 mg·cm^−3)	171.3 °C	–	–	–	–	IC50 ([1]; Mus musculus, NIH3T3, 24 h): 300 ± 6 µg/mL; IC50 ([1]; Mus musculus, NIH3T3, 24 h, read-out: IC50 (in mM)): ~2.2 mM; Solubility in Water at 25 °C ([4]; amount of active compound (SA) per dm^3): 3.852 ± 0.004 g SA·dm^−3; solubility ([4]; water): 3852 ± 4 µg/mL (≈ 27.9 mM); IC50 ([5]; Homo sapiens): 200 ± 100 µg/mL; IC50 ([5]; Homo sapiens, read-out: IC50 (in mM)): ~1.6 mM; viability at 48 h, 0.4 mM (MTT viability assay): 71 ± 3%
